± gives the standard deviation of the averaged measurements.
Key:
[1] = compound: Cn1nnc2c(C(N)=O)ncn2c1=O [TEMOZOLOMIDE]; assay: surviving fraction relative to DMSO-only wells; higher = less growth inhibition; conditions: exposure time: 5 days
Method in brief: (§1)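 Log-phase tumour cell lines were seeded at 250–500 cells per well in 384-well plates. After 24 hours they were exposed continuously for five days to inhibitors at 0.5, 1, 5, 10, 50, 100, 500 and 1000 nM. Viability was read by CellTiter-Glo luminescence after 10 minutes at room temperature, and surviving fraction is luminescence normalised to the median of DMSO-only wells. Each line was screened three times and kept only if replicate Pearson r >0.7 and median Z' >0.3.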

[2] = compound: CN1CCN(c2nc(C3=C(c4c[nH]c5ccccc45)C(=O)NC3=O)c3ccccc3n2)CC1 [SOTRASTAURIN/AEB071]; assay: as above; conditions: exposure time: 5 days
Method in brief: as §1

G292 BONE
surviving fraction ([1]; 0.5 nM): 1.01 ± 0.015 | surviving fraction ([1]; 1 nM): 0.9995 ± 0.0082 | surviving fraction ([1]; 5 nM): 0.981 ± 0.037 | surviving fraction ([1]; 10 nM): 1.05 ± 0.018 | surviving fraction ([1]; 50 nM): 1.04 ± 0.062 | surviving fraction ([1]; 100 nM): 1.02 ± 0.025 | surviving fraction ([1]; 500 nM): 0.986 ± 0.048 | surviving fraction ([1]; 1000 nM): 0.992 ± 0.029 | surviving fraction ([2]; 0.5 nM): 1.04 ± 0.016 | surviving fraction ([2]; 1 nM): 1.002 ± 0.0081 | surviving fraction ([2]; 5 nM): 1.04 ± 0.057 | surviving fraction ([2]; 10 nM): 1.01 ± 0.025 | surviving fraction ([2]; 50 nM): 1.02 ± 0.072 | surviving fraction ([2]; 100 nM): 0.987 ± 0.077 | surviving fraction ([2]; 500 nM): 0.969 ± 0.024 | surviving fraction ([2]; 1000 nM): 0.982 ± 0.046

HCC38 BREAST
surviving fraction ([1]; 0.5 nM): 1.34 ± 0.19 | surviving fraction ([1]; 1 nM): 1.25 ± 0.04 | surviving fraction ([1]; 5 nM): 1.31 ± 0.13 | surviving fraction ([1]; 10 nM): 1.39 ± 0.032 | surviving fraction ([1]; 50 nM): 1.33 ± 0.11 | surviving fraction ([1]; 100 nM): 1.32 ± 0.06 | surviving fraction ([1]; 500 nM): 1.3 ± 0.26 | surviving fraction ([1]; 1000 nM): 1.33 ± 0.11 | surviving fraction ([2]; 0.5 nM): 0.974 ± 0.11 | surviving fraction ([2]; 1 nM): 0.913 ± 0.14 | surviving fraction ([2]; 5 nM): 1.02 ± 0.16 | surviving fraction ([2]; 10 nM): 1.16 ± 0.23 | surviving fraction ([2]; 50 nM): 0.851 ± 0.19 | surviving fraction ([2]; 100 nM): 0.874 ± 0.042 | surviving fraction ([2]; 500 nM): 0.759 ± 0.11 | surviving fraction ([2]; 1000 nM): 0.805 ± 0.12

HCC70 BREAST
surviving fraction ([1]; 0.5 nM): 0.984 ± 0.016 | surviving fraction ([1]; 1 nM): 1.04 ± 0.11 | surviving fraction ([1]; 5 nM): 1.07 ± 0.064 | surviving fraction ([1]; 10 nM): 1.08 ± 0.054 | surviving fraction ([1]; 50 nM): 1.06 ± 0.079 | surviving fraction ([1]; 100 nM): 1.15 ± 0.095 | surviving fraction ([1]; 500 nM): 1.06 ± 0.09 | surviving fraction ([1]; 1000 nM): 1.09 ± 0.086 | surviving fraction ([2]; 0.5 nM): 1.17 ± 0.049 | surviving fraction ([2]; 1 nM): 1.05 ± 0.073 | surviving fraction ([2]; 5 nM): 1.1 ± 0.046 | surviving fraction ([2]; 10 nM): 1.14 ± 0.02 | surviving fraction ([2]; 50 nM): 1.15 ± 0.024 | surviving fraction ([2]; 100 nM): 1.18 ± 0.038 | surviving fraction ([2]; 500 nM): 1.25 ± 0.029 | surviving fraction ([2]; 1000 nM): 1.22 ± 0.06

HMLE3 BREAST
surviving fraction ([1]; 0.5 nM): 1.01 ± 0.053 | surviving fraction ([1]; 1 nM): 1.12 ± 0.085 | surviving fraction ([1]; 5 nM): 1.01 ± 0.11 | surviving fraction ([1]; 10 nM): 1.04 ± 0.021 | surviving fraction ([1]; 50 nM): 1.03 ± 0.039 | surviving fraction ([1]; 100 nM): 1.03 ± 0.026 | surviving fraction ([1]; 500 nM): 1.03 ± 0.044 | surviving fraction ([1]; 1000 nM): 1.15 ± 0.079 | surviving fraction ([2]; 0.5 nM): 1.11 ± 0.098 | surviving fraction ([2]; 1 nM): 1.1 ± 0.057 | surviving fraction ([2]; 5 nM): 1.15 ± 0.034 | surviving fraction ([2]; 10 nM): 1.13 ± 0.061 | surviving fraction ([2]; 50 nM): 1.12 ± 0.087 | surviving fraction ([2]; 100 nM): 1.02 ± 0.078 | surviving fraction ([2]; 500 nM): 0.961 ± 0.12 | surviving fraction ([2]; 1000 nM): 0.831 ± 0.084

HMT3552 BREAST
surviving fraction ([1]; 0.5 nM): 1.09 ± 0.094 | surviving fraction ([1]; 1 nM): 1.07 ± 0.015 | surviving fraction ([1]; 5 nM): 1.05 ± 0.038 | surviving fraction ([1]; 10 nM): 1.09 ± 0.071 | surviving fraction ([1]; 50 nM): 1.15 ± 0.06 | surviving fraction ([1]; 100 nM): 1.19 ± 0.063 | surviving fraction ([1]; 500 nM): 1.09 ± 0.039 | surviving fraction ([1]; 1000 nM): 1.15 ± 0.022 | surviving fraction ([2]; 0.5 nM): 0.982 ± 0.13 | surviving fraction ([2]; 1 nM): 0.975 ± 0.012 | surviving fraction ([2]; 5 nM): 0.984 ± 0.037 | surviving fraction ([2]; 10 nM): 1.04 ± 0.04 | surviving fraction ([2]; 50 nM): 1.03 ± 0.059 | surviving fraction ([2]; 100 nM): 1.04 ± 0.013 | surviving fraction ([2]; 500 nM): 1.3 ± 0.11 | surviving fraction ([2]; 1000 nM): 1.24 ± 0.06

HS57T BREAST
surviving fraction ([1]; 0.5 nM): 0.907 ± 0.067 | surviving fraction ([1]; 1 nM): 0.947 ± 0.056 | surviving fraction ([1]; 5 nM): 1.01 ± 0.051 | surviving fraction ([1]; 10 nM): 1.04 ± 0.049 | surviving fraction ([1]; 50 nM): 1.02 ± 0.033 | surviving fraction ([1]; 100 nM): 1.03 ± 0.074 | surviving fraction ([1]; 500 nM): 0.93 ± 0.058 | surviving fraction ([1]; 1000 nM): 0.948 ± 0.071 | surviving fraction ([2]; 0.5 nM): 1.06 ± 0.044 | surviving fraction ([2]; 1 nM): 1.08 ± 0.026 | surviving fraction ([2]; 5 nM): 1.12 ± 0.056 | surviving fraction ([2]; 10 nM): 1.09 ± 0.063 | surviving fraction ([2]; 50 nM): 1.03 ± 0.092 | surviving fraction ([2]; 100 nM): 1.05 ± 0.028 | surviving fraction ([2]; 500 nM): 1.03 ± 0.031 | surviving fraction ([2]; 1000 nM): 1 ± 0.087

HS578T BREAST
surviving fraction ([1]; 0.5 nM): 0.927 ± 0.11 | surviving fraction ([1]; 1 nM): 0.886 ± 0.094 | surviving fraction ([1]; 5 nM): 0.91 ± 0.15 | surviving fraction ([1]; 10 nM): 0.913 ± 0.054 | surviving fraction ([1]; 50 nM): 1.05 ± 0.1 | surviving fraction ([1]; 100 nM): 0.916 ± 0.074 | surviving fraction ([1]; 500 nM): 0.936 ± 0.12 | surviving fraction ([1]; 1000 nM): 0.942 ± 0.12 | surviving fraction ([2]; 0.5 nM): 0.899 ± 0.11 | surviving fraction ([2]; 1 nM): 0.861 ± 0.083 | surviving fraction ([2]; 5 nM): 0.977 ± 0.27 | surviving fraction ([2]; 10 nM): 0.954 ± 0.11 | surviving fraction ([2]; 50 nM): 1.06 ± 0.16 | surviving fraction ([2]; 100 nM): 0.916 ± 0.057 | surviving fraction ([2]; 500 nM): 0.877 ± 0.064 | surviving fraction ([2]; 1000 nM): 1.01 ± 0.17
